Assay results: US10076511B2, “Bisamide derivative of dicarboxylic acid as an agent for stimulating tissue regeneration and recovery of diminished tissue function” (TREAMID GmbH, priority 2015, dated 2018)
Several values for one entry are separate records, joined by “and”; a condition that tells them apart may be missing. Identical values can stand only once.

Experiments:
[1] = test system: male C57BL/6 mice; experiment: Streptozotocin-induced pancreatic lesion model; assay type: in vivo, mouse; conditions: Day 28; Treamid 1 mg/kg
[2] = test system: male Wistar rats; experiment: Sperm motility in asthenospermia simulated with Etoposide; assay type: in vivo, rat; conditions: for percentage of motile sperm cells: Treamid 5.0 mg/kg for 10 days after administration of Etoposide; for The number of motile sperm cells (in %): 5 days before and 5 days after Etoposide (preventive course), Treamid 5.0 mg/kg
Procedure: The use of the drug that induces an increase in the free radical level was due to the fact that according to modern ideas, the direct cause of asthenospermia is oxidative stress (Kao S. H. et. al. Increase of oxidativestress in human sperm with lower motility. Fertil. and Steril. 2008; 89: 5: 1183-1190).
The experiments were performed on 50 male Wistar rats (3 months of age). Etoposide was administered once intravenously at the maximum tolerated dose of 30 mg/kg.
The effectiveness of Treamid was assessed by the percentage of motile sperm forms isolated from the epididymis.
In the first series, the results of the studies were compared with those obtained for administration of the reference drug, Speman, that was administered intragastrically at a dose of 140 mg/kg.

[3] = test system: precursors for spermatogenic tissue; experiment: Growth of colonies from CFU-Sp with in vitro addition of Treamid; assay type: cell-based, rat; conditions: Cells of the testes of intact rats
Procedure: The precursor cells of the studied organ were cultured by using an underlayer (represented by the cells of the adherent fraction) prepared in advance in a 96-well plate, as described above.
Further, a nonadherent cell fraction of spermatogenic tissue was isolated from the two groups of animals (intact animals and animals received Paclitaxel intravenously 24 hours prior to the study) and was transferred to the resulting underlayer in complete culture medium (80% DMEM, 20% FCS, L-glutamine, antibiotics, heparin) at a concentration of 2×10^5/ml. Prior to the incubation in the complete culture medium, Treamid was added at a concentrations of 1 ng/ml, 3 ng/ml, 10 ng/ml, 30 ng/ml, 100 ng/ml, 300 ng/ml and 1000 ng/ml. The incubation lasted for 7 days in a CO2 incubator at 37° C., 5% CO2 and 100% air humidity. After the incubation, the number of colony-forming units, spermatogenic (CFU-Sp)—clusters of more than 30 cells of round shape and of various diameters—was counted.
The effectiveness of Treamid was estimated by a significant increase in the number of cells giving rise to CFU-Sp in the culture with the addition of the test compound, compared to that in the control.
The direct action of Treamid on the precursors for spermatogenic tissue was studied in vitro by addition of Treamid to the cell culture at concentrations of 1, 30, 100, and 1000 ng/ml.

[4] = test system: male C57BL/6 mice; experiment: Streptozotocin-induced pancreatic lesion model; assay type: in vivo, mouse; set-up: The number of piconized cells per islet (pixel): unit not given here
Procedure: The study was performed on male C57BL/6 mice of 4 week old. Pancreatic damage was induced by intraperitoneal injection of streptozotocin at a dose of 40 mg/kg in 0.25 ml of phosphate buffer every day for 5 days [Szkudelski T. The Mechanism of Alloxan and Streptozotocin Action in B Cells of the Rat Pancreas//Physiological Research.—2001.—Vol. 50.—P. 536-546].
Treamid at a dose of 1 mg/kg was administered daily intragastrically once daily on Days 7-20 of the study.
On Days 0, 6, 10, 13, 16, 19, 21, 24, and 28 of the study, blood glucose was determined. The blood glucose level was determined after four-hour deprivation of feed with a glucometer (SencoCard glucometer, “77 Electronics Kft”, Hungary).
On Day 28 of the study, the animals were euthanized in a CO2 chamber, the pancreas was subjected to a morphological examination, and the pancreatic homogenate was studied on an enzyme-linked immunosorbent assay for common collagen and type I collagen.
For morphological study, a part of the pancreas adjacent to the spleen was fixed in 10% formalin and poured into paraffin. Deparaffined sections of the gland were stained with hematoxylin and eosin. On the sections, the area of 10 serial islets of Langerhans was determined by graphic computer analysis, and the total number of cells and the number of pyknotized cells were counted therein. Then, the number of cells per unit islet area and the percentage of the pyknotized cells were calculated.
Inflammatory cells (neutrophils, lymphocytes, macrophages) in the pancreatic tissue and their composition were studied by staining of the histological sections with hematoxylin-eosin and azur-eosin.
The level of mouse type I collagen in a […] was determined by enzyme-linked immunosorbent assay (Cusabio Biotech CO., LTD, China). The lung tissue homogenate was prepared according to the protocol of the manufacturer, Cusabio Biotech CO., LTD (China).
The level of the total collagen in the lung homogenate was determined by using a SIRCOL Collagen Assay kit (Biocolor Ltd, UK) for determining collagen by binding it to a dye and treating with an acid and a solution of pepsin, according to the manufacturer's instructions. The lung tissue homogenate was prepared according to the protocol of manufacturer's test system.

[5] = test system: male C57BL/6 mice; experiment: Cachexia induced by Lewis lung carcinoma; assay type: in vivo, mouse; conditions: Day 28; Treamid 10 mg/kg intragastrically from Day 15
Procedure: Cachexia developed in male C57Bl/6 mice when simulating hematogenously metastasizing Lewis lung carcinoma (LLC). Tumor cells were injected once subcutaneously into the mice at a concentration of 5×10^6 in 0.1 ml of physiological saline (Yu-Chou T., Samuel K. K., I-Lu L. et al. Preclinical Investigation of the Novel Histone Deacetylase Inhibitor AR-42 in the Treatment of Cancer-Induced Cachexia//JNCI J Natl Cancer Inst (2015) 107(12)).
The day of the injection of tumor cells was taken as Day 1 of the experiment. Treamid was administered at a dose of 10 mg/kg intragastrically once daily, every day from Day 15 to […]. The animals were weighed one day before the introduction of tumor cells (Day 0) and on Day 28 of the experiment. On Day 28, the animals were euthanized in a CO2 chamber, and blood was collected. The level of free testosterone was determined in the blood serum by enzyme immunoassay.

O=C(CCCC(=O)NCCc1ncc[nH]1)NCCc1ncc[nH]1 [Treamid]
Total collagen (mg/ml) in the pancreas [1]: 41 ± 4 mg/mL | Type I collagen (ng/ml) in the pancreas [1]: 665 ± 55*• ng/ml | percentage of motile sperm cells ([2]; group M ± m): 71.01 ± 1.80 % | The number of motile sperm cells (in %) ([2]; group X ± m, Speman 140 mg/kg): 79.83 ± 1.88#*⋄ % | The number of motile sperm cells (in %) ([2]; individual animals, Speman 140 mg/kg intragastrically): 77.42% and 79.09% and 82.72% and 74.67% and 85.26% | percentage of motile sperm cells ([2]; individual males): 74.55% and 69.44% and 70.20% and 65.52% and 75.34% | CFU-Sp per 4 × 10^4 nuclears ([3]; Treamid 1 ng/ml): 6.83 ± 0.48 per 4 × 10^4 nuclears | CFU-Sp per 4 × 10^4 nuclears ([3]; Treamid 30 ng/ml): 6.0 ± 0.36 per 4 × 10^4 nuclears | CFU-Sp per 4 × 10^4 nuclears ([3]; Treamid 100 ng/ml): 8.50 ± 0.42 per 4 × 10^4 nuclears | CFU-Sp per 4 × 10^4 nuclears ([3]; Treamid 1000 ng/ml): 11.67 ± 1.81 per 4 × 10^4 nuclears | The area of the islet tissue (pixel) ([4]; Day 28, Treamid 1 mg/kg): 635770 ± 56163• pixel | The number of piconized cells per islet (pixel) ([4]; Day 28, Treamid 1 mg/kg): 1.75 ± 0.14 | The total number of cells in the islet of Langerhans (×10^4) ([4]; Day 28, Treamid 1 mg/kg): 109.9 ± 12.6• ×10^4 | blood glucose level (mM/L) ([4]; Initial level): 5.1 ± 0.1 mM/L | blood glucose level (mM/L) ([4]; day 6 after the last administration of streptozotocin (before Treamid, given Days 7-20)): 10.8 ± 0.4 mM/L | blood glucose level (mM/L) ([4]; day 10, Treamid 1 mg/kg intragastrically Days 7-20): 11.2 ± 0.2 mM/L | blood glucose level (mM/L) ([4]; day 13, Treamid 1 mg/kg intragastrically Days 7-20): 11.6 ± 0.3*• mM/L | blood glucose level (mM/L) ([4]; day 16, Treamid 1 mg/kg intragastrically Days 7-20): 10.4 ± 1.4 mM/L | blood glucose level (mM/L) ([4]; day 19, Treamid 1 mg/kg intragastrically Days 7-20): 12.0 ± 0.1 mM/L | blood glucose level (mM/L) ([4]; day 21, Treamid 1 mg/kg intragastrically Days 7-20): 12.1 ± 0.4*• mM/L | blood glucose level (mM/L) ([4]; day 24, Treamid 1 mg/kg intragastrically Days 7-20): 12.2 ± 1.0*• mM/L | blood glucose level (mM/L) ([4]; day 28, Treamid 1 mg/kg intragastrically Days 7-20): 12.6 ± 1.1 mM/L | Body weight, including the subtraction of the tumor weight [5]: 23.8 ± 0.57 g | The free testosterone level (pg/ml) in the blood serum [5]: 3.2 ± 0.3*• pg/ml
